From ChEMBL document CHEMBL5661967, “Antitumor activity of HKI-272, an orally active, irreversible inhibitor of the HER-2 tyrosine kinase” (Cancer Res, 2004)
The source made the active and inactive calls. The rule behind the calls is not given here.

Tests used:
[1] = molecular target: RAC-alpha serine/threonine-protein kinase (Homo sapiens, UniProt P31749); test: Inhibition of recombinant AKT (unknown origin) using peptide as substrate
[2] = molecular target: Vascular endothelial growth factor receptor 2 (Homo sapiens, UniProt P35968); test: Inhibition of recombinant KDR (unknown origin) using poly[Glu:Tyr] (4:1) as substrate
[3] = molecular target: Hepatocyte growth factor receptor (Homo sapiens, UniProt P08581); test: Inhibition of recombinant c-Met autophosphorylation (unknown origin)
[4] = molecular target: RAF proto-oncogene serine/threonine-protein kinase (Homo sapiens, UniProt P04049); test: Inhibition of recombinant c-Raf (unknown origin) using protein as substrate
[5] = molecular target: Mitogen-activated protein kinase kinase kinase 8 (Homo sapiens, UniProt P41279); test: Inhibition of recombinant Tpl-2 (unknown origin) using peptide as substrate
Homo sapiens = species on record: Homo sapiens; test: Selectivity ratio of IC50 for recombinant Src (unknown origin) to IC50 for recombinant N-terminal His6-tagged HER2 cytoplasmic domain (676 to 1255 residues)(unknown origin) expressed in baculovirus infected Sf9 insect cells
BT-474 [6] = test: Antiproliferative activity against human BT-474 cells measured after 6 days by sulforhodamine B assay; format: functional, cell-based; settings: BT-474, 144 h
A-431 [7] = test: Antiproliferative activity against human A-431 cells measured after 2 days by sulforhodamine B assay; format: functional, cell-based; settings: A-431, 48 h
[8] = molecular target: Epidermal growth factor receptor (Homo sapiens, UniProt P00533); test: Inhibition of EGF-induced EGFR phosphorylation in human A-431 cells at 1 uM incubated for 3 hrs followed by compound washout and further incubated for 5 hrs by Western blot analysis relative to control; format: cell-based
[9] = molecular target: T1, Receptor tyrosine-protein kinase erbB-2 (Homo sapiens, UniProt P04626); test: Inhibition of [14C]HKI-272 binding to recombinant N-terminal His6-tagged HER2 cytoplasmic domain (676 to 1255 residues)(unknown origin) expressed in baculovirus infected Sf9 insect cells at 5 uM measured after 15 mins by fluorography
[10] = molecular target: T1, Receptor tyrosine-protein kinase erbB-2; test: Binding affinity to HER2 in human […] cells at 1 uM measured after 15 mins by immunoprecipitation assay; format: cell-based; settings: BT-474
BT-474 [11] = test: Cell cycle arrest in human BT-474 cells assessed as down regulation of Rb expression at 1 to 10 nM incubated for 12 to 16 hrs by Western blot analysis; format: functional, cell-based; settings: dose 1-10 nM, time 12-16 hrs
BT-474 [12] = test: Cell cycle arrest in human BT-474 cells assessed as up regulation of p27 expression at 1 to 10 nM incubated for 12 to 16 hrs by Western blot analysis; format: functional, cell-based; settings: dose 1-10 nM, time 12-16 hrs
BT-474 [13] = test: Cell cycle arrest in human BT-474 cells assessed as accumulation of cells at Sub-G1 phase at 0.2 nM measured after 12 to 16 hrs by propidium iodide staining based flow cytometry (reference value: 8%); format: functional; settings: time 12-16 hrs
BT-474 [14] = test: Cell cycle arrest in human BT-474 cells assessed as accumulation of cells at G0-G1 phase at 0.4 nM measured after 12 to 16 hrs by propidium iodide staining based flow cytometry (reference value: 61%); format: functional; settings: time 12-16 hrs
BT-474 [15] = test: Cell cycle arrest in human BT-474 cells assessed as accumulation of cells at G0-G1 phase at 2 nM measured after 12 to 16 hrs by propidium iodide staining based flow cytometry (reference value: 61%); format: functional; settings: time 12-16 hrs
BT-474 [16] = test: Cell cycle arrest in human BT-474 cells assessed as accumulation of cells at S phase at 0.4 nM measured after 12 to 16 hrs by propidium iodide staining based flow cytometry (reference value: 21%); format: functional; settings: time 12-16 hrs
BT-474 [17] = test: Cell cycle arrest in human BT-474 cells assessed as accumulation of cells at S phase at 2 nM measured after 12 to 16 hrs by propidium iodide staining based flow cytometry (reference value: 21%); format: functional; settings: time 12-16 hrs
BT-474 [18] = test: Cell cycle arrest in human BT-474 cells assessed as accumulation of cells at S phase at 0.4 nM measured after 12 to 16 hrs by BrdUrd uptake assay (reference value: 26%); format: functional; settings: time 12-16 hrs
BT-474 [19] = test: Cell cycle arrest in human BT-474 cells assessed as accumulation of cells at S phase at 1 nM measured after 12 to 16 hrs by BrdUrd uptake assay (reference value: 26%); format: functional; settings: time 12-16 hrs
BT-474 [20] = test: Cell cycle arrest in human BT-474 cells assessed as accumulation of cells at S phase at 2 nM measured after 12 to 16 hrs by BrdUrd uptake assay (reference value: 26%); format: functional; settings: time 12-16 hrs
BT-474 [21] = test: Cell cycle arrest in human BT-474 cells assessed as accumulation of cells at G2/M phase at 0.2 nM measured after 12 to 16 hrs by propidium iodide staining based flow cytometry (reference value: 11%); format: functional; settings: time 12-16 hrs
BT-474 [22] = test: Cell cycle arrest in human BT-474 cells assessed as accumulation of cells at G2/M phase at 0.4 nM measured after 12 to 16 hrs by propidium iodide staining based flow cytometry (reference value: 11%); format: functional; settings: time 12-16 hrs
BT-474 [23] = test: Cell cycle arrest in human BT-474 cells assessed as accumulation of cells at G2/M phase at 2 nM measured after 12 to 16 hrs by propidium iodide staining based flow cytometry (reference value: 11%); format: functional; settings: time 12-16 hrs
BT-474 [24] = test: Cell cycle arrest in human BT-474 cells assessed as increase in accumulation of cells at sub-G1 phase at >2 nM measured after 12 to 16 hrs by propidium iodide staining based flow cytometry; format: functional; settings: time 12-16 hrs
NIH3T3 = test: Antitumor activity against mouse 3T3 cells transfected with HER-2 oncogene implanted in po dosed athymic nude mouse assessed as tumor growth inhibition administered daily for 10 days via gavage and measured on day 21; format: functional, organism-based; settings: dose 20-80 mg/kg, time 21.0 day
BT-474 [25] = test: Antitumor activity against human BT-474 cells xenografted in athymic nude mouse assessed as tumor growth inhibition at 10 mg/kg, po administered daily for 20 days via gavage and measured on day 28 relative to control; format: functional; settings: BT-474, 672 h, time 28 day, read-out: TGI
[26] = In vivo inhibition of HER2 autophosphorylation in human BT-474 cells xenografted athymic nude mouse at 40 mg/kg, po administered as single dose via gavage measured after 6 hrs by immunoblot analysis relative to control; format: functional
A-431 [27] = test: Antitumor activity against human A-431 cells xenografted in athymic nude mouse assessed as tumor growth inhibition at 5 mg/kg, po administered daily for 10 days via gavage and measured on day 15 relative to control; format: functional; settings: A-431, 360 h, time 15 day, read-out: TGI
MX1 = test: Antitumor activity against human MX1 cells xenografted in athymic nude mouse assessed as tumor growth inhibition; format: functional, cell-based
[28] = Terminal half life in nude mouse at 20 mg/kg, po administered as single dose; format: ADME, organism-based; settings: in vivo, read-out: beta t1/2 (converted)
[29] = Toxicity in human BT-474 cells xenografted athymic nude mouse assessed as body weight loss at 10 to 40 mg/kg, po administered daily via gavage for 20 days; format: organism-based; settings: in vivo, 480 h, dose 10-40 mg/kg, time 20 day
[30] = Toxicity in mouse 3T3 cells transfected with HER-2 oncogene implanted athymic nude mouse at 20 to 80 mg/kg, po administered daily for 10 days; format: organism-based, NIH3T3; settings: in vivo, 240 h, dose 20-80 mg/kg, time 10 day
[31] = Toxicity in human BT-474 cells xenografted athymic nude mouse at 10 to 40 mg/kg, po administered daily via gavage for 20 days; format: organism-based; settings: in vivo, 480 h, dose 10-40 mg/kg, time 20 day

T1 sequence (P04626 whole entry, the tested form may be a part): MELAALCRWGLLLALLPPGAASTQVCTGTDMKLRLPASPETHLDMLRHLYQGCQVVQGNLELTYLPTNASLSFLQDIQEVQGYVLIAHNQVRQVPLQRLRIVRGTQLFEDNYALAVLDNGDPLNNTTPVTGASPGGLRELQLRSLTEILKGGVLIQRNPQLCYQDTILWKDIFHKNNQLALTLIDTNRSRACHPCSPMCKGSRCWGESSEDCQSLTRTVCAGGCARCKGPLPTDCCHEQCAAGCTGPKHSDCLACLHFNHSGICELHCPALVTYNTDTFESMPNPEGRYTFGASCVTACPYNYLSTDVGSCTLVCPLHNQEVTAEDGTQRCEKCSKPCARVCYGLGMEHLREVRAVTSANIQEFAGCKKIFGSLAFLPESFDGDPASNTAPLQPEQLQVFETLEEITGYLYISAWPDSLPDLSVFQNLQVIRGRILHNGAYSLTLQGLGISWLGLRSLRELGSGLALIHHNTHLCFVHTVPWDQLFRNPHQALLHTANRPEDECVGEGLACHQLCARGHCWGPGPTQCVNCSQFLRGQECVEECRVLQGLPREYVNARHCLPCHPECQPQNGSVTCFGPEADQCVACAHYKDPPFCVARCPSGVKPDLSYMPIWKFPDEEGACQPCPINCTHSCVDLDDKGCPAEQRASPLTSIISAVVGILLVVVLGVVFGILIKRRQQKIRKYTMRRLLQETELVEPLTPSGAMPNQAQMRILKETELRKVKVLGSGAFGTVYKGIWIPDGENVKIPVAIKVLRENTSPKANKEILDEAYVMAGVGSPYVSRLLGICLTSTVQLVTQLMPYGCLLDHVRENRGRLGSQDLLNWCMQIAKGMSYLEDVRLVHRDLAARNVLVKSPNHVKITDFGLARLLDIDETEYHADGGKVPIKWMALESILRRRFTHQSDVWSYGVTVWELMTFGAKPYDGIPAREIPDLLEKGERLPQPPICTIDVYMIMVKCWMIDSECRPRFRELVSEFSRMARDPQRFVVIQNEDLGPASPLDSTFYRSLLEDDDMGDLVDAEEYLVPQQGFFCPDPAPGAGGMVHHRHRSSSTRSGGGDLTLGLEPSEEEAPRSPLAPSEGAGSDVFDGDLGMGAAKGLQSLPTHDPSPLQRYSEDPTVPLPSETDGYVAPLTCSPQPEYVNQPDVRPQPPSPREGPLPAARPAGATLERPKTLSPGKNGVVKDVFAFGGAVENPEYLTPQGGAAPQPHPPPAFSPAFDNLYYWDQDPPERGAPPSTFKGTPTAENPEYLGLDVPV
Chain of Mitogen-activated protein kinase kinase kinase 8 (P41279 whole entry, the tested form may be a part): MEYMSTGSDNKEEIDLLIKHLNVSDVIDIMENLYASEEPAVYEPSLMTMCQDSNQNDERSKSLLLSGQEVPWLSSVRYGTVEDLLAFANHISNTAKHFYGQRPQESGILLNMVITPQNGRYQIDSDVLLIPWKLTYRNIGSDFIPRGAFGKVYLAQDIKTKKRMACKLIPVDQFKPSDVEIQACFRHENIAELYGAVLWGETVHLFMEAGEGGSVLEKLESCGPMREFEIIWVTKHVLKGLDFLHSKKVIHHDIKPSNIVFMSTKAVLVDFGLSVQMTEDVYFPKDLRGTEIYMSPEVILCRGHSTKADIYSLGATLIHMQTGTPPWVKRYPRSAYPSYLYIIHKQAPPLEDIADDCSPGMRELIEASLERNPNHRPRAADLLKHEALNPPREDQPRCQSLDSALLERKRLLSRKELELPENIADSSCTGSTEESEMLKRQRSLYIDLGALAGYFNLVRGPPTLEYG
Chain of RAC-alpha serine/threonine-protein kinase (P31749 whole entry): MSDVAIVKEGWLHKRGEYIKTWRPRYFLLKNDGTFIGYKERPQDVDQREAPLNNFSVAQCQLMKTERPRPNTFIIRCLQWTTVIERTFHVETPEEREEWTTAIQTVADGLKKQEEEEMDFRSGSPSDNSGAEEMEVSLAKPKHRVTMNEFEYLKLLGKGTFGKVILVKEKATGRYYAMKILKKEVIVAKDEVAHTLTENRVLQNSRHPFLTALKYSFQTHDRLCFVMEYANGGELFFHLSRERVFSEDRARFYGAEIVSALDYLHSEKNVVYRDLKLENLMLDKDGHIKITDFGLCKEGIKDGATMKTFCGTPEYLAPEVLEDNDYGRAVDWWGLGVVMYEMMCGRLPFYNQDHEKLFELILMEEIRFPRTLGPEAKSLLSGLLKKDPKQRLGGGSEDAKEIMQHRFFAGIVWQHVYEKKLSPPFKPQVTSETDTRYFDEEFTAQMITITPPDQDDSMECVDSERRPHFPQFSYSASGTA
Chain of RAF proto-oncogene serine/threonine-protein kinase (P04049 whole entry): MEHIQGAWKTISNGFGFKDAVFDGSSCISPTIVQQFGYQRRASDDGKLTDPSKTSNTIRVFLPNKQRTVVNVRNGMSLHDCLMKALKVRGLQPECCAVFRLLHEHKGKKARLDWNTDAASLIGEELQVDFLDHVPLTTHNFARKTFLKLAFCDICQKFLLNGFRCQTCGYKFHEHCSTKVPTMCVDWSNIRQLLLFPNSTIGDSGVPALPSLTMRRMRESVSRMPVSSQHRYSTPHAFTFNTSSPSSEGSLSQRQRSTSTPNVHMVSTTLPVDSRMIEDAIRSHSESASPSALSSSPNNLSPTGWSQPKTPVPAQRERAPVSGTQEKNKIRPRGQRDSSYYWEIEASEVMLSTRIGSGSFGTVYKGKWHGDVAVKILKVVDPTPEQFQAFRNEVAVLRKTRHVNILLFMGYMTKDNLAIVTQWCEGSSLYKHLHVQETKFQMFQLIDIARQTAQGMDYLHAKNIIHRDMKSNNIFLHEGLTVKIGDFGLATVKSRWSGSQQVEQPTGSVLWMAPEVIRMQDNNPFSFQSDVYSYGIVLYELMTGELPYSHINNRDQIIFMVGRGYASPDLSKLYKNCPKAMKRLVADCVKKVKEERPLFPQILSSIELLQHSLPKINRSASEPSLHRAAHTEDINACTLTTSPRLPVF
Chain of Vascular endothelial growth factor receptor 2 (P35968 whole entry): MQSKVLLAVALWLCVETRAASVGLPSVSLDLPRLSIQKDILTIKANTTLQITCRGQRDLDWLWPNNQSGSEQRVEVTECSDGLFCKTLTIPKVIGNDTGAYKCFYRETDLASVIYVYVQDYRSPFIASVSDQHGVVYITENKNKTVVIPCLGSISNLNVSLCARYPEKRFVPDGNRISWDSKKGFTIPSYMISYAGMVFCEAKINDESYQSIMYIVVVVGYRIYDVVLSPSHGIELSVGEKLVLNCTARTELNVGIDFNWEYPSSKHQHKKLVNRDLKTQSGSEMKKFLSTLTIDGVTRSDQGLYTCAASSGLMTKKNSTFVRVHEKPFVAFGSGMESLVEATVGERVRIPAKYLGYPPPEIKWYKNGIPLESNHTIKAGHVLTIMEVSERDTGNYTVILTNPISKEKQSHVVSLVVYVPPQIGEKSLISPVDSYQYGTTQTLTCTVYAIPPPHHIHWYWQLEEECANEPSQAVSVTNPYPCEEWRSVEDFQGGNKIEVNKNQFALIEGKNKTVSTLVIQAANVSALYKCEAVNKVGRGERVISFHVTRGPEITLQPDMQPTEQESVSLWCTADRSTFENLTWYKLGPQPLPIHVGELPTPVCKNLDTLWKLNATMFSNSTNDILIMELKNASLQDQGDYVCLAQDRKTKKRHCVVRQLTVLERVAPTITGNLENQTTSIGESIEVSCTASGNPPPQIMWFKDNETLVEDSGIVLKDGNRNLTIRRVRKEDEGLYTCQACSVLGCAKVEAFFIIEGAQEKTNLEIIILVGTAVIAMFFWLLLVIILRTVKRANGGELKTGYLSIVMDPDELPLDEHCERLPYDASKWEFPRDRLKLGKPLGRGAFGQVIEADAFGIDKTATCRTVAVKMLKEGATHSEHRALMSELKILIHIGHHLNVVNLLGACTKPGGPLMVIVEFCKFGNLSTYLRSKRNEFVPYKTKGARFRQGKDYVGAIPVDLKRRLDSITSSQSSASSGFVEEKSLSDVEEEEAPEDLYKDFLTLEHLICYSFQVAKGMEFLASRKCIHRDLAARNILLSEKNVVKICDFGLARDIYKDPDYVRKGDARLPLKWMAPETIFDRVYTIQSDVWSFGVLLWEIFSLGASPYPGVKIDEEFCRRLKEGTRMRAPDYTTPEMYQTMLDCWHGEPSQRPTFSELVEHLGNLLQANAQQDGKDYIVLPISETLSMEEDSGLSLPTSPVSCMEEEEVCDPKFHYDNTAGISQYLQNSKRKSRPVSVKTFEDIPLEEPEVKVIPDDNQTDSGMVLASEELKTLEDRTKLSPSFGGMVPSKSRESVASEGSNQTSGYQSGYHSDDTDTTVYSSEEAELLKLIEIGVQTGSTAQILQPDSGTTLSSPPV

For `COc1cc2ncc(C#N)c(Nc3ccc(OCc4ccccn4)c(Cl)c3)c2cc1NC(=O)/C=C/CN(C)C`, the IC50 [1] was greater than 20000 nM, the IC50 [2] was 800 nM and the IC50 [3] was greater than 35000 nM. It also gave an IC50 [4] greater than 18000 nM, an IC50 [5] greater than 18000 nM and a Ratio IC50 (Homo sapiens) of 24. For the same molecule, the IC50 (BT-474 [6]) was 2 nM, the IC50 (A-431 [7]) was 81 nM and the inhibition [8] was 105%. The inhibition [9] was “Active”, the Activity [10] was “Active” and the Activity (BT-474 [11]) was “Active”. For the same molecule, the Activity (BT-474 [12]) was “Active”, the Activity (BT-474 [13]) was 9% and the Activity (BT-474 [14]) was 65%. For the same molecule, the Activity (BT-474 [15]) was 66%, the Activity (BT-474 [16]) was 12% and the Activity (BT-474 [17]) was 12%. For the same molecule, the Activity (BT-474 [18]) was 14%, the Activity (BT-474 [19]) was 12% and the Activity (BT-474 [20]) was 10%. It also gave an Activity (BT-474 [21]) of 13%, an Activity (BT-474 [22]) of 13% and an Activity (BT-474 [23]) of 11%. For the same molecule, the Activity (BT-474 [24]) was “Active”, the TGI (NIH3T3) was “Dose-Dependent Effect” and the inhibition in vivo at 10 mg/kg (BT-474 [25]) was 67%. The inhibition in vivo at 40 mg/kg [26] was 97%, the inhibition in vivo at 5 mg/kg (A-431 [27]) was 32% and the TGI (MX1) was “inactive”. For the same molecule, the half-life [28] was roughly 4 h, the Activity [29] was “Non-Toxic” and the Activity [30] was “Non-Toxic”. The Activity [31] was “Non-Toxic”.
